Source: article PMC12731232, “Microbial Biotransformation of the Sesquiterpene Carotol: Generation of Hydroxylated Metabolites with Potential Cytotoxic and Target-Specific Binding Activities” (Biomolecules, 2025)
≈ marks a conversion by molar mass, not a printed value.

Key:
in vitro = conditions: human
Protocol: (§1) The assay was conducted at the Regional Center for Mycology and Biotechnology, Al-Azhar University, Cairo, Egypt.
(§2) Cancer and normal cells were seeded into 96-well plates at a density of 5 × 10^4 cells per well and incubated for 24 h prior to treatment. Test compounds, dissolved in 0.5% DMSO, were added in triplicate at twelve different concentrations. Vehicle controls (media only or media containing 0.5% DMSO) were included. After a 24 h incubation period, cell viability was assessed via the MTT assay.
(§3) Briefly, the media were replaced with 100 µL of fresh RPMI-1640 medium, followed by the addition of 10 µL of a 12 mM MTT stock solution (5 mg/mL in PBS) to each well, including untreated controls. Plates were incubated at 37 °C in a 5% CO2 atmosphere for 4 h. Subsequently, 85 µL of medium was removed from each well, and 50 µL of DMSO was added to dissolve the resulting formazan crystals. The plates were thoroughly mixed and incubated for an additional 10 min at 37 °C. Absorbance was measured at 590 nm using a microplate reader (SunRise, TECAN Inc., Morrisville, NC, USA). Cell viability percentages were calculated, and IC50 values (µM) were determined from dose–response curves using GraphPad Prism 10 software (San Diego, CA, USA) [38].

MCF-7 (breast carcinoma) = assay: MTT cell viability assay, MCF-7; conditions: for IC50: Homo sapiens, MCF7, 24 h, read-out: Cytotoxic activity IC50 ± SD; for Selectivity index (SI): SI = CC50(MRC-5)/IC50(MCF-7)
Protocol: as §1, §2, §3

A-549 (lung carcinoma) = assay: MTT cell viability assay, A-549; conditions: for IC50: Homo sapiens, A549, 24 h, read-out: Cytotoxic activity IC50 ± SD; for Selectivity index (SI): SI = CC50(MRC-5)/IC50(A-549)
Protocol: as §1, §2, §3

[1] = system: HepG-2 (hepatocellular carcinoma); assay: MTT cell viability assay, HepG-2; conditions: for IC50: Homo sapiens, HepG2, 24 h, read-out: Cytotoxic activity IC50 ± SD; for Selectivity index (SI): SI = CC50(MRC-5)/IC50(HepG-2)
Protocol: as §1, §2, §3

[2] = system: HCT-116 (colon carcinoma); assay: MTT cell viability assay, HCT-116; conditions: for IC50: Homo sapiens, HCT-116, 24 h, read-out: Cytotoxic activity IC50 ± SD; for Selectivity index (SI): SI = CC50(MRC-5)/IC50(HCT-116)
Protocol: as §1, §2, §3

[3] = Substrate control stability in sterile fermentation medium; format: physicochemical; conditions: without microorganisms
Protocol: Control groups included a substrate control, in which sterile medium containing carotol (5 mg/100 µL DMF) was incubated without microorganisms. […] Culture controls consisted of microorganisms grown under identical conditions to the screening cultures but without carotol. After two weeks of incubation, all cultures were harvested and analyzed by thin-layer chromatography.

[4] = system: green monkey kidney epithelial cells (VERO); design: method as in doi:10.1016/j.indcrop.2016.08.001; conditions: cited from earlier work
[5] = system: human hypopharyngeal squamous cell carcinoma cells (FaDu); design: method as in doi:10.1016/j.indcrop.2016.08.001; conditions: cited from earlier work
[6] = MTT cell viability assay, MRC-5; conditions: human, MRC-5 normal lung fibroblasts
Protocol: as §1, §2, §3

Row | SMILES | IC50 at 24 h (in vitro) [µM] | IC50 (MCF-7 (breast carcinoma)) [µM] | Selectivity index (SI) (MCF-7 (breast carcinoma)) | IC50 (A-549 (lung carcinoma)) [µM] | Selectivity index (SI) (A-549 (lung carcinoma)) | IC50 [1] [µM] | Selectivity index (SI) [1] | IC50 [2] [µM] | Selectivity index (SI) [2] | Stability of substrate control ([3]; 5 °C, two weeks) | Stability of substrate control ([3]; room temperature (25–30 °C)) | IC50 [4] [µg/mL] | IC50 [5] [µg/mL] | IC50 at 24 h [6] [µM]
1 | CC(C)C1C(O)CC2(C)CC(O)C3(C)CCC12O3 (stereo not drawn) [CM1, 9α-hydroxydaucol] | 466 ± 20.3 | 401 ± 20.3 | 1.16 | 225 ± 13.4 | 2.07 | 221 ± 12.3 | 2.11 | 339 ± 15.6 | 1.37 |  |  |  |  | 
2 | CC(C)(O)[C@H]1[C@@H](O)C[C@]2(C)C[C@H](O)[C@]3(C)CC[C@]12O3 [CM2, 9α,13-dihydroxydaucol] | 248 ± 11.2 | 213 ± 13.7 | 1.16 | 138 ± 9.2 | 1.79 | 154 ± 9.39 | 1.60 | 181 ± 9.95 | 1.37 |  |  |  |  | 
3 | CC(C)[C@H]1CC[C@]2(C)C[C@H](O)[C@@](C)(O)CC[C@]12O [CM3] | 316 ± 15.2 | 242 ± 15.7 | 1.31 | 205 ± 10.6 | 1.54 | 196 ± 10.6 | 1.62 | 226 ± 11 | 1.40 |  |  |  |  | 
4 | CC1=CC[C@@]2(C)CC[C@H](C(C)C)[C@@]2(O)CC1 [Carotol] | 176 ± 10.9 | 68.4 ± 6.04 | 2.57 | 28.7 ± 2.75 | 6.14 | 52.3 ± 4.23 | 3.36 | 25.7 ± 0.53 | 6.85 | remained fully stable | slight decomposition | 39.7 (≈ 179 µM) | 38.3 (≈ 172 µM) | 
5 | COc1cccc2c1C(=O)c1c(O)c3c(c(O)c1C2=O)C[C@@](O)(C(=O)CO)C[C@@H]3O[C@H]1C[C@H](N)[C@H](O)[C@H](C)O1 [Doxorubicin, doxorubicin, reference compound] |  | 3.07 ± 0.18 | 14.31 | 3.31 ± 0.26 |  | 1.27 ± 0.2 | 34.62 | 2.99 ± 0.22 | 14.66 |  |  |  |  | 44 ± 3.24
